Results from patent US9303005B2, “Use of dibenzofuranone derivatives to inhibit kinases” (priority 2010, dated 2016).

Assays:
CK2 holoenzyme = CK2 holoenzyme (Homo sapiens (Human), UniProt P68400); assay: capillary electrophoretic CK2 inhibition/activity test (E-peptide substrate); assay type: biochemical; details: for CK2-activity at 10 μM: residual CK2 activity at 10 μM substance, values below 4% not reliably quantifiable; for IC50: capillary electrophoretic test, ten minutes pre-incubation
Procedure: To this end, the capillary electrophoretic CK2 inhibition test using E-peptide as the substrate was carried out. […] Ten concentrations between 0.0001 μM and 10 μM were investigated for this purpose.
Kuckländer (Kuckländer and Töberich, 1982; Bollig, 2007).

LNCaP cells = assay: MTT test, viability of LNCaP cells; assay type: cell-based, human; details: relative to untreated cells; for viability at 75 µM / viability at 25 µM / viability at 50 µM: Homo sapiens, LNCaP
Procedure: The viability was determined with the aid of the MTT test.
A MTT test was used to determine the effect of TF on the viability of LNCaP cells. To this end, these cell lines were treated with three concentrations of TF (25 μM, 50 μM, 75 μM). The effect was determined after 24 h, 48 h and 72 h as the relative viability compared with untreated cells. […] After treating the LNCaP cells with TF, both the effects of increasing the concentration and also of prolonging the incubation time could be recorded. After 24 hours incubation with 25 μM of TF, the viability had already dropped to 45% and after the same incubation time with 50 μM of TF, it had dropped further to 30%. […] The effects after 24 h could be reinforced in each case by extending the incubation time. Thus, after 48 hours incubation with 25 μM, 50 μM and 75 μM of TF, a viability of 37%, 15% or 12% was observed. […] Thus, an incubation time of 24 h had only a small effect. […] Only at the highest concentration of 75 μM, a reduction to 45% after 48 h was recorded, and after 72 h, the viability was still 17% (FIG. 5B). […] In summary, it has been shown that the viability of LNCaP cells is reduced by both substances.

[1] = system: PARP cleavage in LNCaP cells; assay: PARP cleavage in LNCaP cells (Western Blot); assay type: cell-based, human
Procedure: The controls were cells which had only been treated with DMSO (0 μM). After SDS-PAGE and Western Blotting, complete PARP (115 kDa) and the 89 kDa fragment obtained after caspase cleavage with the aid of an anti-PARP antibody were labelled.
Next, we investigated whether the TF-mediated reduction in cell viability could be related to apoptotic events. To this end, cleavage of poly(ADP-ribose)-polymerase (PARP) in cells was assayed. Caspase 3 cleaves the 115 kDa PARP into two stable fragments: the 24 kDa DNA-binding N-terminal domain and the 89 kDa C-terminal fragment. This specific proteolysis of PARP characterizes the irreversible point of initiation apoptosis and can be assayed in a Western Blot of cell lysates with a specific PARP antibody. […] This effect was observed both after an incubation time of 24 h and also, more strongly, after 48 h.

[2] = system: endogenous CK2 of LNCaP cells; assay: CK2 activity in lysates of treated LNCaP cells (radiometric test); assay type: cell-based, human; details: for endogenous CK2 activity of LNCaP cells: from 25 μM, 24 h or 48 h, relative to untreated cells
Procedure: The CK2 activity was determined using a radiometric test procedure. The relative activities of the samples were each relative to untreated cells. White bars show the CK2 activity after 24 h; grey bars show the CK2 activity after 48 h incubation with each inhibitor. For samples (A) treated with TF, double determinations were carried out (the mean value is given in each case).
LNCaP cells were incubated with TF in the same manner as in the experiments described above. After 24 h or 48 h, the CK2 activity of lysates was measured using radiometric CK2 testing. This investigation provided an indication as to whether the inhibition of TF found with the isolated enzyme could be observed in cellular systems. […] Cells were incubated for 24 h or 48 h with 25 μM, 50 μM or 75 μM of TF and then washed and lysed. The relative CK2 activity was calculated from these cell lysates. The reference was the CK2 activity of cell lysates from untreated cells incubated for corresponding periods. In order to compensate for any fluctuations in the radiometric test, in the case of TF, two samples per parameter were measured. As a qualitative control, the TBB samples were used and measured individually.
The observed reduction in CK2 activity was thus due to modulation of the CK2 enzyme activity. […] Altogether, it can be seen that TF reduces the endogenous CK2 activity in LNCaP cells. […] Proof of the inhibition of intracellular CK2 is provided by the ability of TF to permeate cells.

[3] = prior art; cited from earlier work
CK2α (CK2a) = CK2α (CK2a) (Homo sapiens (Human), UniProt P68400); assay: Reaction Biology radiometric kinase selectivity test; assay type: biochemical; details: 10 μM TF, 10 μM ATP; read-out: residual activity CK2α
Aurora A = Aurora A (Homo sapiens (Human), UniProt O14965); assay: as above; assay type: biochemical; details: 10 μM TF, 10 μM ATP, relative kinase activity
Procedure: (§1) The listed PKs were incubated with 10 μM TF and 10 μM ATP. Next, the relative percentage kinase activity was determined (mean value from n=2). 100% activity was defined as the activity of the respective kinase in the absence of TF. The PK grouping was in accordance with Manning et al. (2002).
(§2) After the inhibitory potency of TF had been able to be established in LNCaP cells, the possibility that TF could be a selective CK2 inhibitor had to be investigated. To this end, the inhibiting effect of TF on 63 isolated human protein kinases (PK) was investigated by the firm “Reaction Biology” (Malvern, Pa., USA). These included representatives of PKs from all main groups of the human kinome (Manning et al., 2002). The results of this investigation are shown in FIG. 8, classified into the main human PK groups. In this series of tests, all of the PKs were each incubated with 10 μM of ATP and 10 μM of TF. In a subsequent radiometric test, the respective kinase activity with respect to a sample without TF was determined. Since the KM values of PK with respect to ATP occasionally differed substantially (Knight and Shokat, 2005), the results only allow a semi-quantitative comparison of inhibition by TF to be made. […] However, the different test parameters, such as substrate and ATP concentration, buffer, etc., must be taken into account and so a direct comparison of the inhibition data as a percentage is not possible at this point. The seven PKs which were inhibited the most strongly (>70%) are listed separately in Table 3.

CK2α′ (CK2a2) = CK2α′ (CK2a2) (Homo sapiens (Human), UniProt P19784); assay: as above; assay type: biochemical; details: 10 μM TF, 10 μM ATP; read-out: residual activity CK2α′
Procedure: as §1, §2

FLT4/VEGFR3 = FLT4/VEGFR3 (Homo sapiens (Human), UniProt P35916); assay: as above; assay type: biochemical; details: 10 μM TF, 10 μM ATP, relative kinase activity
Procedure: as §1, §2

IRAK4 = IRAK4 (Homo sapiens (Human), UniProt Q9NWZ3); assay: as above; assay type: biochemical; details: 10 μM TF, 10 μM ATP
Procedure: as §1, §2

KDR/VEGFR2 = KDR/VEGFR2 (Homo sapiens (Human), UniProt P35968); assay: as above; assay type: biochemical; details: 10 μM TF, 10 μM ATP, relative kinase activity
Procedure: as §1, §2

LBK1 = LBK1 (Homo sapiens (Human), UniProt Q15831); assay: as above; assay type: biochemical; details: 10 μM TF, 10 μM ATP
Procedure: as §1, §2

LCK = LCK (Homo sapiens (Human), UniProt P06239); assay: as above; assay type: biochemical; details: 10 μM TF, 10 μM ATP, relative kinase activity
Procedure: as §1, §2

MAPK14 = MAPK14 (Homo sapiens (Human), UniProt Q16539); assay: as above; assay type: biochemical; details: 10 μM TF, 10 μM ATP
Procedure: as §1, §2

PAK4 = PAK4 (Homo sapiens (Human), UniProt O96013); assay: as above; assay type: biochemical; details: 10 μM TF, 10 μM ATP
Procedure: as §1, §2

PIM1 = PIM1 (Homo sapiens (Human), UniProt P11309); assay: as above; assay type: biochemical; details: 10 μM TF, 10 μM ATP, relative kinase activity
Procedure: as §1, §2

PKD2/PRKD2 = PKD2/PRKD2 (Homo sapiens (Human), UniProt Q9BZL6); assay: as above; assay type: biochemical; details: 10 μM TF, 10 μM ATP, relative kinase activity
Procedure: as §1, §2

SGK1 (d1-59, S422D) = SGK1 (d1-59, S422D) (Homo sapiens (Human), UniProt O00141, S422D); assay: as above; assay type: biochemical; details: 10 μM TF, 10 μM ATP, relative kinase activity
Procedure: as §1, §2

[4] = system: 63 isolated human protein kinases; assay: Selectivity profile over 63 isolated human protein kinases; assay type: biochemical; details: 10 μM TF, 10 μM ATP
Procedure: as §1
After the inhibitory potency of TF had been able to be established in LNCaP cells, the possibility that TF could be a selective CK2 inhibitor had to be investigated. To this end, the inhibiting effect of TF on 63 isolated human protein kinases (PK) was investigated by the firm “Reaction Biology” (Malvern, Pa., USA). These included representatives of PKs from all main groups of the human kinome (Manning et al., 2002). The results of this investigation are shown in FIG. 8, classified into the main human PK groups. In this series of tests, all of the PKs were each incubated with 10 μM of ATP and 10 μM of TF. In a subsequent radiometric test, the respective kinase activity with respect to a sample without TF was determined. Since the KM values of PK with respect to ATP occasionally differed substantially (Knight and Shokat, 2005), the results only allow a semi-quantitative comparison of inhibition by TF to be made. […]

CK2 = details: prior-art value; read-out: IC50 (CK2, literature); cited from earlier work

Chain of CK2 holoenzyme (P68400 whole entry): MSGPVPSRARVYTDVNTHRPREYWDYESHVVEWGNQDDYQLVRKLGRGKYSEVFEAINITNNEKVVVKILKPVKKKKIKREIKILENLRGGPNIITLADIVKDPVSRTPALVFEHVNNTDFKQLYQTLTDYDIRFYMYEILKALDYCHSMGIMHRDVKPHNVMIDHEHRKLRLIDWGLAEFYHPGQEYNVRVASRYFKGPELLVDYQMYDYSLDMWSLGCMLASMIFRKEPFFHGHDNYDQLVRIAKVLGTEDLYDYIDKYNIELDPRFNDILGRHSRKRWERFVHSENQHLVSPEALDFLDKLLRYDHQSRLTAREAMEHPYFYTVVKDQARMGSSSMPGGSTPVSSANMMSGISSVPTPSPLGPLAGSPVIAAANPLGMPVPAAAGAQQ
Chain of CK2 holoenzyme (P67870 whole entry partner): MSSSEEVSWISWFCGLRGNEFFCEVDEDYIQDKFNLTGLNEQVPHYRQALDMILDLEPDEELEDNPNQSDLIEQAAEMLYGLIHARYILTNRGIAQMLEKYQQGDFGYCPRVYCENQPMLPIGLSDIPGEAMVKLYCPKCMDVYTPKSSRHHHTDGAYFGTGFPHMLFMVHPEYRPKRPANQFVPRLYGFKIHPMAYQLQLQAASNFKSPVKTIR
Chain of IRAK4 (Q9NWZ3 whole entry): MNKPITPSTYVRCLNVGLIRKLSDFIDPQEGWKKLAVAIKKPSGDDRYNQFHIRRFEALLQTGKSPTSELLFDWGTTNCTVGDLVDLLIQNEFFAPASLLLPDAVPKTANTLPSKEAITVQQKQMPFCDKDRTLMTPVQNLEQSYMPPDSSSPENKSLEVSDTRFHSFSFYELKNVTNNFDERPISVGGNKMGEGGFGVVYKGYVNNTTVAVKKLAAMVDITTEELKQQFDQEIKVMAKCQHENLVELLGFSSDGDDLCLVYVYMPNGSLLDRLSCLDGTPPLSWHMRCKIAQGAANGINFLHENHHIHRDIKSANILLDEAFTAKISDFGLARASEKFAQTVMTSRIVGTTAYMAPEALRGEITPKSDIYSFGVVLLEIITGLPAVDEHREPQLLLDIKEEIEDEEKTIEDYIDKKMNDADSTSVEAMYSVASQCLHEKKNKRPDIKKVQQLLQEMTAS
Chain of SGK1 (d1-59, S422D) (O00141 60-431 S422D): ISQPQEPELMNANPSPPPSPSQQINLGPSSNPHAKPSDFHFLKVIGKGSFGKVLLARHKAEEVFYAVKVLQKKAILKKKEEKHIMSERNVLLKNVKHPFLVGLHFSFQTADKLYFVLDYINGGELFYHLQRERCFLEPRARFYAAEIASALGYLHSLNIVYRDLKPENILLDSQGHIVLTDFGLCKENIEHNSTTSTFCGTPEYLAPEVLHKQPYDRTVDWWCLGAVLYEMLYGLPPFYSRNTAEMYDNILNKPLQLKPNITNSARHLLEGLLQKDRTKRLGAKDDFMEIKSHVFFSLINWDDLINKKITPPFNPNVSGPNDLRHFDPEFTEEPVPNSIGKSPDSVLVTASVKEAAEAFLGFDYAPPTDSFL
Chain of LBK1 (Q15831 whole entry): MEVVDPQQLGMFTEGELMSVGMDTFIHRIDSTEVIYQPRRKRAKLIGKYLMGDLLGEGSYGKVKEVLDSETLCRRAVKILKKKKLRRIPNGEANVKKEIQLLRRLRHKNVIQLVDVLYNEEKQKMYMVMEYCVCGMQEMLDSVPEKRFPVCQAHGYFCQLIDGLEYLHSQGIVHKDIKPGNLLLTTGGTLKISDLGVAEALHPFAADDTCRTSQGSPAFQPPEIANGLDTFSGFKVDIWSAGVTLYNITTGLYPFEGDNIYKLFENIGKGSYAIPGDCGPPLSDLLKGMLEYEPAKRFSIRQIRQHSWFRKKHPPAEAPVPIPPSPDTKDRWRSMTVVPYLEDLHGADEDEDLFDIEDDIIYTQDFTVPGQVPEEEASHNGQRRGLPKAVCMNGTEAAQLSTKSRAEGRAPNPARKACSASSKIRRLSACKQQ
Chain of LBK1 (Q7RTN6 whole entry partner): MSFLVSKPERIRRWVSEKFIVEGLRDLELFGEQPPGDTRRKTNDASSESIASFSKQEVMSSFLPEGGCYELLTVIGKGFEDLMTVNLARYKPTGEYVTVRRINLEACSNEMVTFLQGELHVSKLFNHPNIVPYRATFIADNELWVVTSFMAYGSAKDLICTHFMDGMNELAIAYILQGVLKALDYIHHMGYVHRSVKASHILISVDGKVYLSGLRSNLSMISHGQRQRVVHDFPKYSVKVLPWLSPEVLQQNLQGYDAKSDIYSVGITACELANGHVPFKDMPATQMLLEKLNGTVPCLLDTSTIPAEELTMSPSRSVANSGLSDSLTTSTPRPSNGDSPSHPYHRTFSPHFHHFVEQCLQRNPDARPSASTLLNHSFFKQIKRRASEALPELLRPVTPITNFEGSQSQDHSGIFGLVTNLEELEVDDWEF
Chain of LBK1 (Q9Y376 whole entry partner): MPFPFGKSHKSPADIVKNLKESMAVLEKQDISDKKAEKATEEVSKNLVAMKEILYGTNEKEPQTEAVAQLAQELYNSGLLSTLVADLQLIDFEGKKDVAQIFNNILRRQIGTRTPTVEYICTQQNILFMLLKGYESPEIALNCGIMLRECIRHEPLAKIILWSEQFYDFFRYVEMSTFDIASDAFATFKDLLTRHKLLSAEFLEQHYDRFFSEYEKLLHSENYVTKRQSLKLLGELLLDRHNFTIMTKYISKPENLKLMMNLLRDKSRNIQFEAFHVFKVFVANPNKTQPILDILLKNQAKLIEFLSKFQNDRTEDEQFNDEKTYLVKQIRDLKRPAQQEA
Chain of CK2α (CK2a) (P68400 whole entry): as the sequence (P68400 whole entry) above
Chain of PAK4 (O96013 whole entry): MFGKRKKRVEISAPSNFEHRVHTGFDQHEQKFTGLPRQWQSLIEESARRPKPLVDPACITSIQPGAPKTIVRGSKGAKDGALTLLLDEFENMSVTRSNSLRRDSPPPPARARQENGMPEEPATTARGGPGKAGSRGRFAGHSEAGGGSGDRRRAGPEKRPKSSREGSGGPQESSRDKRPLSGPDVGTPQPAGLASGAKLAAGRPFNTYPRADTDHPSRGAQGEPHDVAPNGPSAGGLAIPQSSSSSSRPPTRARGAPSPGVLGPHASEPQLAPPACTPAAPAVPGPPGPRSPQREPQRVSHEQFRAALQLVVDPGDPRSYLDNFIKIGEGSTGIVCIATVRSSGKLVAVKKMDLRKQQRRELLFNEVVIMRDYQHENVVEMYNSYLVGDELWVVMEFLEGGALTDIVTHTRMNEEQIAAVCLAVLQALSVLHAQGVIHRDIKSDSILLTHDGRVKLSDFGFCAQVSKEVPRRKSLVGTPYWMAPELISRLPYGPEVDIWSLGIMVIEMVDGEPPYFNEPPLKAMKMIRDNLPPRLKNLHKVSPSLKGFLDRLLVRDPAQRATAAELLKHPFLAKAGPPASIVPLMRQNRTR
Chain of PIM1 (P11309 whole entry): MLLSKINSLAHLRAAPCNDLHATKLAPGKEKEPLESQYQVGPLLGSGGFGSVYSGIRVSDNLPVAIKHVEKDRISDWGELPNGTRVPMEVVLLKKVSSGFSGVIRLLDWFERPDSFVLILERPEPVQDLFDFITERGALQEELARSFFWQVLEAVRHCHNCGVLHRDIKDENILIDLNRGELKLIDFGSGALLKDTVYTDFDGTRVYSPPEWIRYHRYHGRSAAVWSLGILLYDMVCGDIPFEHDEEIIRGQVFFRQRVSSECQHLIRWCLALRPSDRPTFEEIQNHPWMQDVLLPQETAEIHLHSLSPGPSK
Chain of MAPK14 (Q16539 whole entry): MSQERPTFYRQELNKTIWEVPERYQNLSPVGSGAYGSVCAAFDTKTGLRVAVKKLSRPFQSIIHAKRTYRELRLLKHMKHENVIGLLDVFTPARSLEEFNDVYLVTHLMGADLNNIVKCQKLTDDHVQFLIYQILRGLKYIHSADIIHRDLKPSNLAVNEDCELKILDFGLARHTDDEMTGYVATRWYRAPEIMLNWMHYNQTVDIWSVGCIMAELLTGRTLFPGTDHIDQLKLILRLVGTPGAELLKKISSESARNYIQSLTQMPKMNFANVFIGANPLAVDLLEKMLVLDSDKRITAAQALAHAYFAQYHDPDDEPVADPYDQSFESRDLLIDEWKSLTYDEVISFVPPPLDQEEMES
Chain of LCK (P06239 whole entry): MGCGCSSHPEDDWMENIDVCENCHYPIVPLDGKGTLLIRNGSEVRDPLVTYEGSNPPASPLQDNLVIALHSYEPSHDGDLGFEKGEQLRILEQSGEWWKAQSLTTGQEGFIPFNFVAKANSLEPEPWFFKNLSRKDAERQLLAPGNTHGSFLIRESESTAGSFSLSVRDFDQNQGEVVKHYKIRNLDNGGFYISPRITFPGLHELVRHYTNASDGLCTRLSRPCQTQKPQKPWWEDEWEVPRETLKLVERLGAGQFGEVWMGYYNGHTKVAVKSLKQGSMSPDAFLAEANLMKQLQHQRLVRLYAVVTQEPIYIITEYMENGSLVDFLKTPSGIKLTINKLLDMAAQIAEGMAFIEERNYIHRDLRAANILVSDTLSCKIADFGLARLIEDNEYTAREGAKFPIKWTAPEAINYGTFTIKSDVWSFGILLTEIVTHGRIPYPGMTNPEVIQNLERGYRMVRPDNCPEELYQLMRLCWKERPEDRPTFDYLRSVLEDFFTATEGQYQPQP
Chain of Aurora A (O14965 whole entry): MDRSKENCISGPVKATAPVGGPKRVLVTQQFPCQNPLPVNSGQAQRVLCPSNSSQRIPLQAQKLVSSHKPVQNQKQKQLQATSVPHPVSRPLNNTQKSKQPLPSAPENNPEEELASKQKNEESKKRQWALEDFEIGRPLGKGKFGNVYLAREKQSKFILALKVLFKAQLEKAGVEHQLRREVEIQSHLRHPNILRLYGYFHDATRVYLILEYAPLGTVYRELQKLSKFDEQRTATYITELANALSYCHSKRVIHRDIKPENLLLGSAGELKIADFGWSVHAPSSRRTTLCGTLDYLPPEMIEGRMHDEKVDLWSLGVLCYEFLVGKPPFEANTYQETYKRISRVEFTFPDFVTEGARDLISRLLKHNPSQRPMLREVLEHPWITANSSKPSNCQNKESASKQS

## CC(C)=CC(=O)c1coc2ccc(O)cc12 [Ric149]
CK2 holoenzyme
  CK2-activity at 10 μM: 61%^

## CC(=O)Oc1c(Cl)c(Cl)c2oc(C(=O)C=C(C)C)c(N)c2c1C#N [Ric152]
CK2 holoenzyme
  IC50: 200 nM

## CCOC(=O)c1oc2ccc(OC(C)=O)c(CNC(C)=O)c2c1NC(C)=O [RicFur]
CK2 holoenzyme
  CK2-activity at 10 μM: 110%^

## Brc1c(Br)c(Br)c2[nH]nnc2c1Br [TBB, 4,5,6,7-tetrabrombenzotriazole]
LNCaP cells; 25 μM, 72 h
  viability of LNCaP cells: no effects were observed
LNCaP cells; 24 h
  viability at 75 µM: 90%
LNCaP cells; 48 h
  viability at 75 µM: 45%
LNCaP cells; 72 h
  viability at 75 µM: 17%
[1]; 25 μM
  bands of the 89 kDa PARP fragment: a faint band could be seen at 89 kDa
[1]; from 50 μM, 24 h and 48 h
  bands of the 89 kDa PARP fragment: almost identical results
[2]; 75 μM, 24 h, called most probably a rogue result
  CK2 activity of LNCaP cell lysate: 90%
[2]
  endogenous CK2 activity of LNCaP cells: 50%
[3]
  solubility in water: relatively poor solubility in water

## Cc1ccc(N/C=C2\C(=O)CCc3c2oc2c(Cl)c(Cl)c(O)cc32)cc1 [TF, (Z)-6,7-dichloro-1,4-dihydro-8-hydroxy-4-[(4-methylphenylamino)methylene]-dibenzo[b,d]furan-3(2H)-one]
CK2 holoenzyme; IC50 at 8 different ATP concentrations
  mode of inhibition: ATP competitive inhibitor
CK2 holoenzyme; Y-axis intersection of IC50 vs ATP concentration (8 ATP concentrations), read-out: inhibition constant Ki
  Ki: 14.7 nM
CK2 holoenzyme
  IC50: 30 nM
LNCaP cells; 25 μM, 24 h
  viability at 25 µM: 45%
LNCaP cells; 25 μM, 48 h
  viability at 25 µM: 37%
LNCaP cells; 25 μM, 72 h
  viability at 25 µM: 14%
LNCaP cells; 24 h
  viability at 50 µM: 30%
  viability at 75 µM: 31%
LNCaP cells; 48 h
  viability at 50 µM: 15%
  viability at 75 µM: 12%
LNCaP cells; 72 h
  viability at 50 µM: 5%
  viability at 75 µM: 3%
[1]; from 50 μM, 24 h and 48 h
  bands of the 89 kDa PARP fragment: increased in intensity in a concentration-dependent manner
[2]
  endogenous CK2 activity of LNCaP cells: 50%
CK2α (CK2a)
  remaining activity at 10 µM: 24%
Aurora A
  Activity Aurora A: 11.00%
CK2α′ (CK2a2)
  remaining activity at 10 µM: 35%
FLT4/VEGFR3
  Activity FLT4/VEGFR3: 19.68%
IRAK4
  kinase activity IRAK4: clear increase in activity
KDR/VEGFR2
  Activity KDR/VEGFR2: 13.05%
LBK1
  kinase activity LBK1: clear increase in activity
LCK
  Activity LCK: 29.20%
MAPK14
  kinase activity MAPK14: clear increase in activity
PAK4
  kinase activity PAK4: clear increase in activity
PIM1
  Activity PIM1: 19.90%
PKD2/PRKD2
  Activity PKD2/PRKD2: 20.90%
SGK1 (d1-59, S422D)
  Activity SGK1 (d1-59, S422D): 14.16%
[4]
  number of the 63 PK inhibited (reduction in activity of >50%) in addition to CK2α and CK2α′: twelve

## O=c1cc(-c2ccc(O)cc2)oc2cc(O)cc(O)c12 [apigenin]
CK2
  IC50: ~1000 nM
